Values joined by “and” are separate entries in the source; they are usually repeats but may differ in a detail not shown here. Identical values can stand only once. ± gives the uncertainty stated by the source.
Assay: xn = mol fraction of the nth substance listed

For `C1COCCO1` + O, the viscosity (303.15 K, 101.3 kPa, x2 = 0.2053) was 1.163 ± 0.019 mPa·s, the viscosity (303.15 K, 101.3 kPa, x2 = 0.3758) was 1.322 ± 0.021 mPa·s and 1.321 ± 0.021 mPa·s and the viscosity (303.15 K, 101.3 kPa, x2 = 0.7952) was 1.738 ± 0.028 mPa·s. For the same compound, the viscosity (303.15 K, 101.3 kPa, x2 = 0.8661) was 1.58 ± 0.025 mPa·s and 1.579 ± 0.025 mPa·s, the viscosity (303.15 K, 101.3 kPa, x2 = 0.9391) was 1.221 ± 0.02 mPa·s and the viscosity (303.15 K, 101.3 kPa, x2 = 0.9742) was 0.9855 ± 0.016 mPa·s and 0.9853 ± 0.016 mPa·s. It also gave a viscosity (303.15 K, 101.33 kPa, x1 = 0.0222) of 0.959 ± 0.0096 mPa·s, a viscosity (303.15 K, 101.33 kPa, x1 = 0.0486) of 1.137 ± 0.011 mPa·s and a viscosity (303.15 K, 101.33 kPa, x1 = 0.0806) of 1.332 ± 0.013 mPa·s. It also gave a viscosity (303.15 K, 101.33 kPa, x1 = 0.12) of 1.521 ± 0.015 mPa·s, a viscosity (303.15 K, 101.33 kPa, x1 = 0.143) of 1.608 ± 0.016 mPa·s and a viscosity (303.15 K, 101.33 kPa, x1 = 0.17) of 1.674 ± 0.017 mPa·s. The viscosity (303.15 K, 101.33 kPa, x1 = 0.2) was 1.726 ± 0.017 mPa·s, the viscosity (303.15 K, 101.33 kPa, x1 = 0.235) was 1.75 ± 0.017 mPa·s and the viscosity (303.15 K, 101.33 kPa, x1 = 0.25) was 1.749 ± 0.017 mPa·s. It also gave a viscosity (303.15 K, 101.33 kPa, x1 = 0.275) of 1.74 ± 0.017 mPa·s, a viscosity (303.15 K, 101.33 kPa, x1 = 0.323) of 1.704 ± 0.017 mPa·s and a viscosity (303.15 K, 101.33 kPa, x1 = 0.334) of 1.685 ± 0.017 mPa·s. The viscosity (303.15 K, 101.33 kPa, x1 = 0.38) was 1.634 ± 0.016 mPa·s, the viscosity (303.15 K, 101.33 kPa, x1 = 0.45) was 1.538 ± 0.015 mPa·s and the viscosity (303.15 K, 101.33 kPa, x1 = 0.5) was 1.46 ± 0.015 mPa·s. It also gave a viscosity (303.15 K, 101.33 kPa, x1 = 0.537) of 1.417 ± 0.014 mPa·s, a viscosity (303.15 K, 101.33 kPa, x1 = 0.648) of 1.282 ± 0.013 mPa·s and a viscosity (303.15 K, 101.33 kPa, x1 = 0.716) of 1.215 ± 0.012 mPa·s. It also gave a viscosity (303.15 K, 101.33 kPa, x1 = 0.795) of 1.153 ± 0.012 mPa·s, a viscosity (303.15 K, 101.33 kPa, x1 = 0.846) of 1.125 ± 0.011 mPa·s and a viscosity (303.15 K, 101.33 kPa, x1 = 0.918) of 1.098 ± 0.011 mPa·s. For the same compound, the viscosity (308.15 K, 101.33 kPa, x1 = 0.0222) was 0.859 ± 0.0086 mPa·s, the viscosity (308.15 K, 101.33 kPa, x1 = 0.0486) was 1.014 ± 0.01 mPa·s and the viscosity (308.15 K, 101.33 kPa, x1 = 0.0806) was 1.184 ± 0.012 mPa·s. It also gave a viscosity (308.15 K, 101.33 kPa, x1 = 0.12) of 1.349 ± 0.013 mPa·s, a viscosity (308.15 K, 101.33 kPa, x1 = 0.143) of 1.419 ± 0.014 mPa·s and a viscosity (308.15 K, 101.33 kPa, x1 = 0.17) of 1.479 ± 0.015 mPa·s. It also gave a viscosity (308.15 K, 101.33 kPa, x1 = 0.2) of 1.525 ± 0.015 mPa·s, a viscosity (308.15 K, 101.33 kPa, x1 = 0.235) of 1.549 ± 0.015 mPa·s and a viscosity (308.15 K, 101.33 kPa, x1 = 0.25) of 1.553 ± 0.016 mPa·s. It also gave a viscosity (308.15 K, 101.33 kPa, x1 = 0.275) of 1.546 ± 0.015 mPa·s, a viscosity (308.15 K, 101.33 kPa, x1 = 0.323) of 1.518 ± 0.015 mPa·s and a viscosity (308.15 K, 101.33 kPa, x1 = 0.334) of 1.503 ± 0.015 mPa·s. It also gave a viscosity (308.15 K, 101.33 kPa, x1 = 0.38) of 1.46 ± 0.015 mPa·s, a viscosity (308.15 K, 101.33 kPa, x1 = 0.45) of 1.38 ± 0.014 mPa·s and a viscosity (308.15 K, 101.33 kPa, x1 = 0.5) of 1.317 ± 0.013 mPa·s. It also gave a viscosity (308.15 K, 101.33 kPa, x1 = 0.537) of 1.282 ± 0.013 mPa·s, a viscosity (308.15 K, 101.33 kPa, x1 = 0.648) of 1.17 ± 0.012 mPa·s and a viscosity (308.15 K, 101.33 kPa, x1 = 0.716) of 1.112 ± 0.011 mPa·s. For the same compound, the viscosity (308.15 K, 101.33 kPa, x1 = 0.795) was 1.06 ± 0.011 mPa·s, the viscosity (308.15 K, 101.33 kPa, x1 = 0.846) was 1.036 ± 0.01 mPa·s and the viscosity (308.15 K, 101.33 kPa, x1 = 0.918) was 1.017 ± 0.01 mPa·s. The viscosity (313.1 K, 101 kPa, x2 = 0.228) was 0.97 ± 0.015 mPa·s, the viscosity (313.1 K, 101 kPa, x2 = 0.2741) was 0.989 ± 0.015 mPa·s and the viscosity (313.1 K, 101 kPa, x2 = 0.4187) was 1.047 ± 0.016 mPa·s. For the same compound, the viscosity (313.1 K, 101 kPa, x2 = 0.7038) was 1.368 ± 0.02 mPa·s, the viscosity (313.1 K, 101 kPa, x2 = 0.8099) was 1.376 ± 0.02 mPa·s and the viscosity (313.1 K, 101 kPa, x2 = 0.8346) was 1.32 ± 0.02 mPa·s. For the same compound, the viscosity (313.1 K, 101 kPa, x2 = 0.8791) was 1.229 ± 0.018 mPa·s, the viscosity (313.1 K, 101 kPa, x2 = 0.9194) was 1.083 ± 0.017 mPa·s and the viscosity (313.1 K, 101 kPa, x2 = 0.9508) was 0.937 ± 0.015 mPa·s. For the same compound, the viscosity (313.1 K, 101 kPa, x2 = 0.9786) was 0.786 ± 0.013 mPa·s, the viscosity (313.15 K, 101.3 kPa, x2 = 0.0459) was 0.9391 ± 0.015 mPa·s and the viscosity (313.15 K, 101.3 kPa, x2 = 0.09407) was 0.9443 ± 0.015 mPa·s. The viscosity (313.15 K, 101.3 kPa, x2 = 0.2053) was 0.9839 ± 0.016 mPa·s, the viscosity (313.15 K, 101.3 kPa, x2 = 0.3758) was 1.1 ± 0.018 mPa·s and the viscosity (313.15 K, 101.3 kPa, x2 = 0.7952) was 1.377 ± 0.022 mPa·s. It also gave a viscosity (313.15 K, 101.33 kPa, x1 = 0.0222) of 0.776 ± 0.0078 mPa·s, a viscosity (313.15 K, 101.33 kPa, x1 = 0.0486) of 0.914 ± 0.0091 mPa·s and a viscosity (313.15 K, 101.33 kPa, x1 = 0.0806) of 1.061 ± 0.011 mPa·s. For the same compound, the viscosity (313.15 K, 101.33 kPa, x1 = 0.12) was 1.199 ± 0.012 mPa·s, the viscosity (313.15 K, 101.33 kPa, x1 = 0.143) was 1.265 ± 0.013 mPa·s and the viscosity (313.15 K, 101.33 kPa, x1 = 0.17) was 1.322 ± 0.013 mPa·s. The viscosity (313.15 K, 101.33 kPa, x1 = 0.2) was 1.365 ± 0.014 mPa·s, the viscosity (313.15 K, 101.33 kPa, x1 = 0.235) was 1.386 ± 0.014 mPa·s and the viscosity (313.15 K, 101.33 kPa, x1 = 0.25) was 1.383 ± 0.014 mPa·s. The viscosity (313.15 K, 101.33 kPa, x1 = 0.275) was 1.384 ± 0.014 mPa·s, the viscosity (313.15 K, 101.33 kPa, x1 = 0.323) was 1.366 ± 0.014 mPa·s and the viscosity (313.15 K, 101.33 kPa, x1 = 0.334) was 1.352 ± 0.014 mPa·s. The viscosity (313.15 K, 101.33 kPa, x1 = 0.38) was 1.316 ± 0.013 mPa·s, the viscosity (313.15 K, 101.33 kPa, x1 = 0.45) was 1.249 ± 0.012 mPa·s and the viscosity (323.1 K, 101 kPa, x2 = 0.228) was 0.836 ± 0.013 mPa·s. It also gave a viscosity (323.1 K, 101 kPa, x2 = 0.2741) of 0.85 ± 0.013 mPa·s, a viscosity (323.1 K, 101 kPa, x2 = 0.4187) of 0.888 ± 0.014 mPa·s and a viscosity (323.1 K, 101 kPa, x2 = 0.591) of 1.063 ± 0.016 mPa·s. The viscosity (323.1 K, 101 kPa, x2 = 0.7038) was 1.123 ± 0.017 mPa·s, the viscosity (323.1 K, 101 kPa, x2 = 0.8099) was 1.122 ± 0.017 mPa·s and the viscosity (323.1 K, 101 kPa, x2 = 0.8346) was 1.078 ± 0.016 mPa·s. It also gave a viscosity (323.1 K, 101 kPa, x2 = 0.8791) of 1.006 ± 0.015 mPa·s, a viscosity (323.1 K, 101 kPa, x2 = 0.9194) of 0.889 ± 0.014 mPa·s and a viscosity (323.1 K, 101 kPa, x2 = 0.9508) of 0.774 ± 0.013 mPa·s. It also gave a viscosity (323.1 K, 101 kPa, x2 = 0.9786) of 0.652 ± 0.011 mPa·s.
